Measurements reported in PubChem BioAssay (NCI).
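Values below derive from 48-hour exposures of cells grown in 96-well plates, with endpoints linearly interpolated between the two concentrations bracketing the appropriate inhibition level. Abbreviation: GI50, concentration required for 50% inhibition of growth. TGI denotes the concentration required for complete inhibition of growth.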

Assays:
Assay in all cases: NCI anticancer screen, dose series, 48 h
786-0 renal = system: 786-0 renal
A498 renal = system: A498 renal
A549 NSCLC = system: A549 NSCLC
ACHN renal = system: ACHN renal
BT-549 breast = system: BT-549 breast
CAKI-1 renal = system: CAKI-1 renal
CCRF-CEM leukemia = system: CCRF-CEM leukemia
COLO 205 colon = system: COLO 205 colon
DU-145 prostate = system: DU-145 prostate
EKVX NSCLC = system: EKVX NSCLC
HCC-2998 colon = system: HCC-2998 colon
HCT-116 colon = system: HCT-116 colon
HCT-15 colon = system: HCT-15 colon
HL-60(TB) leukemia = system: HL-60(TB) leukemia
HOP-62 NSCLC = system: HOP-62 NSCLC
HOP-92 NSCLC = system: HOP-92 NSCLC
HS 578T breast = system: HS 578T breast
HT29 colon = system: HT29 colon
IGROV1 ovarian = system: IGROV1 ovarian
K-562 leukemia = system: K-562 leukemia
KM12 colon = system: KM12 colon
LOX IMVI melanoma = system: LOX IMVI melanoma
M14 melanoma = system: M14 melanoma
MALME-3M melanoma = system: MALME-3M melanoma
MCF7 breast = system: MCF7 breast
MDA-MB-231 breast = system: MDA-MB-231 breast
MDA-MB-435 = system: MDA-MB-435
MOLT-4 leukemia = system: MOLT-4 leukemia
NCI-H226 lung = system: NCI-H226 lung
NCI-H23 lung = system: NCI-H23 lung
NCI-H460 lung = system: NCI-H460 lung
NCI-H522 lung = system: NCI-H522 lung
NCI/ADR-RES ovarian = system: NCI/ADR-RES ovarian
OVCAR-3 ovarian = system: OVCAR-3 ovarian
OVCAR-4 ovarian = system: OVCAR-4 ovarian
OVCAR-5 ovarian = system: OVCAR-5 ovarian
OVCAR-8 ovarian = system: OVCAR-8 ovarian
PC-3 prostate = system: PC-3 prostate
RPMI-8226 leukemia = system: RPMI-8226 leukemia
SF-268 CNS = system: SF-268 CNS
SF-295 CNS = system: SF-295 CNS
SF-539 CNS = system: SF-539 CNS
SK-MEL-2 melanoma = system: SK-MEL-2 melanoma
SK-MEL-28 melanoma = system: SK-MEL-28 melanoma
SK-MEL-5 melanoma = system: SK-MEL-5 melanoma
SK-OV-3 ovarian = system: SK-OV-3 ovarian
SN12C renal = system: SN12C renal
SNB-19 CNS = system: SNB-19 CNS
SNB-75 CNS = system: SNB-75 CNS
SR leukemia = system: SR leukemia
SW-620 colon = system: SW-620 colon
T-47D breast = system: T-47D breast
TK-10 renal = system: TK-10 renal
U251 CNS = system: U251 CNS
UACC-257 melanoma = system: UACC-257 melanoma
UACC-62 melanoma = system: UACC-62 melanoma
UO-31 renal = system: UO-31 renal
RXF 393 renal = system: RXF 393 renal

## CS(=O)(=O)c1ccc2c(c1)C(=O)c1c-2n(CCCBr)c(=O)c2cc([N+](=O)[O-])ccc12
786-0 renal
  GI50: 6.07 µM
  TGI: > 100 µM
A498 renal
  GI50: 0.127 µM
  TGI: 14.8 µM
A549 NSCLC
  GI50: 7.34 µM
  TGI: > 100 µM
ACHN renal
  GI50: 4.98 µM
  TGI: > 100 µM
BT-549 breast
  GI50: 26.7 µM
  TGI: > 100 µM
CAKI-1 renal
  GI50: 16.4 µM
  TGI: > 100 µM
CCRF-CEM leukemia
  GI50: 758 nM
  TGI: 30.7 µM
COLO 205 colon
  GI50: > 100 µM
  TGI: > 100 µM
DU-145 prostate
  GI50: 6.25 µM
  TGI: > 100 µM
EKVX NSCLC
  GI50: > 100 µM
  TGI: > 100 µM
HCC-2998 colon
  GI50: 24.8 µM
  TGI: > 100 µM
HCT-116 colon
  GI50: 7.44 µM
  TGI: > 100 µM
HCT-15 colon
  GI50: 48.9 µM
  TGI: > 100 µM
HL-60(TB) leukemia
  GI50: 3.37 µM
  TGI: > 100 µM
HOP-62 NSCLC
  GI50: 8.14 µM
  TGI: > 100 µM
HOP-92 NSCLC
  GI50: 10.9 µM
  TGI: 40 µM
HS 578T breast
  GI50: 4.98 µM
  TGI: 44.1 µM
HT29 colon
  GI50: 29.5 µM
  TGI: > 100 µM
IGROV1 ovarian
  GI50: 13.6 µM
  TGI: > 100 µM
K-562 leukemia
  GI50: 5.15 µM
  TGI: > 100 µM
KM12 colon
  GI50: > 100000 nM
  TGI: > 100 µM
LOX IMVI melanoma
  GI50: 5.77 µM
  TGI: > 100 µM
M14 melanoma
  GI50: 7.11 µM
  TGI: > 100 µM
MALME-3M melanoma
  GI50: 69.6 µM
  TGI: > 100 µM
MCF7 breast
  GI50: 992 nM
  TGI: > 100000 nM
MDA-MB-231 breast
  GI50: 51.1 µM
  TGI: > 100 µM
MDA-MB-435
  GI50: 82.6 µM
  TGI: > 100 µM
MOLT-4 leukemia
  GI50: 1.94 µM
  TGI: > 100 µM
NCI-H226 lung
  GI50: 26.5 µM
  TGI: > 100 µM
NCI-H23 lung
  GI50: 7.87 µM
  TGI: > 100 µM
NCI-H460 lung
  GI50: 718 nM
  TGI: > 100 µM
NCI-H522 lung
  GI50: 4.87 µM
  TGI: > 100 µM
NCI/ADR-RES ovarian
  GI50: 27.3 µM
  TGI: > 100 µM
OVCAR-3 ovarian
  GI50: 28.8 µM
  TGI: > 100 µM
OVCAR-4 ovarian
  GI50: 47.4 µM
  TGI: > 100 µM
OVCAR-5 ovarian
  GI50: > 100 µM
  TGI: > 100 µM
OVCAR-8 ovarian
  GI50: 29.3 µM
  TGI: > 100 µM
PC-3 prostate
  GI50: 9.94 µM
  TGI: > 100 µM
RPMI-8226 leukemia
  GI50: 1.68 µM
  TGI: 42.8 µM
SF-268 CNS
  GI50: 9.59 µM
  TGI: > 100 µM
SF-295 CNS
  GI50: 2.07 µM
  TGI: 33.5 µM
SF-539 CNS
  GI50: 24 µM
  TGI: > 100 µM
SK-MEL-2 melanoma
  GI50: 19.6 µM
  TGI: 43.8 µM
SK-MEL-28 melanoma
  GI50: > 100 µM
  TGI: > 100 µM
SK-MEL-5 melanoma
  GI50: 1.91 µM
  TGI: 15.8 µM
SK-OV-3 ovarian
  GI50: 7.58 µM
  TGI: > 100 µM
SN12C renal
  GI50: 6.88 µM
  TGI: > 100 µM
SNB-19 CNS
  GI50: 6.03 µM
  TGI: > 100 µM
SNB-75 CNS
  GI50: 12.8 µM
  TGI: 42.2 µM
SR leukemia
  GI50: 1060 nM
  TGI: > 100 µM
SW-620 colon
  GI50: 0.683 µM
  TGI: > 100 µM
T-47D breast
  GI50: 4.88 µM
  TGI: > 100 µM
TK-10 renal
  GI50: 40.2 µM
  TGI: > 100 µM
U251 CNS
  GI50: 8.76 µM
  TGI: > 100 µM
UACC-257 melanoma
  GI50: 43.7 µM
  TGI: > 100 µM
UACC-62 melanoma
  GI50: 4.26 µM
  TGI: > 100 µM
UO-31 renal
  GI50: 3.12 µM
  TGI: > 100 µM

## Fc1ccc(Nc2ncc(-c3cc(F)c(Cl)cc3Cl)s2)cc1Cl
A498 renal
  GI50: 11.2 µM
  TGI: 29.1 µM
A549 NSCLC
  GI50: 14.9 µM
  TGI: 31.3 µM
ACHN renal
  GI50: 19.3 µM
  TGI: 51.5 µM
BT-549 breast
  GI50: 20.2 µM
  TGI: 45.1 µM
CAKI-1 renal
  GI50: 8.2 µM
  TGI: 22 µM
COLO 205 colon
  GI50: 28.5 µM
  TGI: > 100 µM
DU-145 prostate
  GI50: 9.01 µM
  TGI: 30.8 µM
EKVX NSCLC
  GI50: 16.3 µM
  TGI: 31.3 µM
HCT-116 colon
  GI50: 2.82 µM
  TGI: 7.2 µM
HCT-15 colon
  GI50: 3.44 µM
  TGI: > 100 µM
HL-60(TB) leukemia
  GI50: 18.1 µM
  TGI: 36.2 µM
HOP-62 NSCLC
  GI50: 9.43 µM
  TGI: 21.8 µM
HOP-92 NSCLC
  GI50: 1.47 µM
  TGI: 13.3 µM
HS 578T breast
  GI50: 11.5 µM
  TGI: 36.4 µM
HT29 colon
  GI50: 24.3 µM
  TGI: > 100 µM
IGROV1 ovarian
  GI50: 26.2 µM
  TGI: > 100 µM
K-562 leukemia
  GI50: 3.46 µM
  TGI: 15.5 µM
KM12 colon
  GI50: 2690 nM
  TGI: 13.3 µM
LOX IMVI melanoma
  GI50: 9.08 µM
  TGI: 96 µM
MALME-3M melanoma
  GI50: 14 µM
  TGI: 31.2 µM
MCF7 breast
  TGI: 2480 nM
MDA-MB-231 breast
  GI50: 2.15 µM
  TGI: 6.87 µM
MDA-MB-435
  GI50: 15.4 µM
  TGI: 32.5 µM
MOLT-4 leukemia
  GI50: 5.46 µM
  TGI: 18.6 µM
NCI-H226 lung
  GI50: 7.92 µM
  TGI: > 100 µM
NCI-H23 lung
  GI50: 14.1 µM
  TGI: 28.1 µM
NCI-H460 lung
  GI50: 2980 nM
  TGI: 9.61 µM
NCI-H522 lung
  GI50: 20.8 µM
  TGI: 44.3 µM
NCI/ADR-RES ovarian
  GI50: 17.7 µM
  TGI: 32.5 µM
OVCAR-3 ovarian
  GI50: 10.5 µM
  TGI: 23.9 µM
OVCAR-4 ovarian
  GI50: 26.5 µM
  TGI: > 100 µM
OVCAR-5 ovarian
  GI50: 15.8 µM
  TGI: 30.5 µM
OVCAR-8 ovarian
  GI50: 20.1 µM
  TGI: 64.2 µM
PC-3 prostate
  GI50: 14 µM
  TGI: 27.7 µM
RPMI-8226 leukemia
  GI50: 9.38 µM
  TGI: 25.1 µM
RXF 393 renal
  GI50: 6.67 µM
  TGI: 24.3 µM
SF-268 CNS
  GI50: 5.63 µM
  TGI: 20.3 µM
SF-295 CNS
  GI50: 15.9 µM
  TGI: 31 µM
SF-539 CNS
  GI50: 10.5 µM
  TGI: 32.5 µM
SK-MEL-2 melanoma
  GI50: 22.8 µM
  TGI: 57.9 µM
SK-MEL-28 melanoma
  GI50: 79.9 µM
  TGI: > 100 µM
SK-MEL-5 melanoma
  GI50: 12.3 µM
  TGI: 25.9 µM
SK-OV-3 ovarian
  GI50: 90.8 µM
  TGI: > 100 µM
SN12C renal
  GI50: 3.91 µM
  TGI: > 100 µM
SNB-19 CNS
  GI50: > 100 µM
  TGI: > 100 µM
SNB-75 CNS
  GI50: 39.3 µM
  TGI: > 100 µM
SW-620 colon
  GI50: 5.47 µM
  TGI: 24.9 µM
T-47D breast
  GI50: > 100 µM
  TGI: > 100 µM
TK-10 renal
  GI50: 8.05 µM
  TGI: 21.8 µM
U251 CNS
  GI50: 6.09 µM
  TGI: 23.7 µM
UACC-257 melanoma
  GI50: 14.3 µM
  TGI: 29.2 µM
UACC-62 melanoma
  GI50: 8.41 µM
  TGI: 26.5 µM
UO-31 renal
  GI50: 17.1 µM
  TGI: 42.1 µM
